What all share (assay type): functional
The test system of assay [1] is Streptococcus pneumoniae. Description: Antibacterial activity against erythromycin-resistant Streptococcus pneumoniae A22072 expressing mef gene by broth microdilution method.
In assay [2] the test system is Streptococcus pneumoniae. Briefly: Antibacterial activity against erythromycin-resistant Streptococcus pneumoniae B1 expressing erm gene by broth microdilution method.
Assay [3] relates to Streptococcus pneumoniae. Briefly: Antibacterial activity against erythromycin-resistant Streptococcus pneumoniae AB11 expressing erm and mef genes by broth microdilution method.
The test system of assay [4] is Streptococcus pneumoniae. Description: Antibacterial activity against erythromycin-susceptible Streptococcus pneumoniae ATCC 49619 by broth microdilution method.

Values after ≈ are worked out from the molar mass of the structure shown.

The record followed here is ChEMBL document CHEMBL1153924, “Synthesis and antibacterial activity of 4'',11-di-O-arylalkylcarbamoyl azithromycin derivatives” (2009).

As to `CCCCCNC(=O)O[C@@H]1[C@@H](C)N(C)C[C@H](C)C[C@@](C)(O)[C@H](O[C@@H]2O[C@H](C)C[C@H](N(C)C)[C@H]2O)[C@@H](C)[C@H](O[C@H]2C[C@@](C)(OC)[C@@H](OC(=O)NCCc3ccccc3Cl)[C@H](C)O2)[C@@H](C)C(=O)O[C@H](CC)[C@@]1(C)O`, the MIC is 0.5 µg/mL (≈ 0.479 µM) with Streptococcus pneumoniae [1], 0.5 µg/mL (≈ 0.479 µM) in the assay on Streptococcus pneumoniae [2], 16 µg/mL (≈ 15.3 µM) against Streptococcus pneumoniae [3] and less than 0.03 µg/mL against Streptococcus pneumoniae [4].

On to `CCCCCNC(=O)O[C@@H]1[C@@H](C)N(C)C[C@H](C)C[C@@](C)(O)[C@H](O[C@@H]2O[C@H](C)C[C@H](N(C)C)[C@H]2O)[C@@H](C)[C@H](O[C@H]2C[C@@](C)(OC)[C@@H](OC(=O)NCc3ccc(OC)cc3)[C@H](C)O2)[C@@H](C)C(=O)O[C@H](CC)[C@@]1(C)O`, for which the MIC worked out at 1 µg/mL (≈ 0.975 µM) in the assay with Streptococcus pneumoniae [1], 0.5 µg/mL (≈ 0.488 µM) against Streptococcus pneumoniae [2], 32 µg/mL (≈ 31.2 µM) in the assay with Streptococcus pneumoniae [3] and 0.06 µg/mL (≈ 0.0585 µM) against Streptococcus pneumoniae [4].

In the case of `CC[C@H]1OC(=O)[C@H](C)[C@@H](O[C@H]2C[C@@](C)(OC)[C@@H](OC(=O)NCc3ccc(F)cc3)[C@H](C)O2)[C@H](C)[C@@H](O[C@@H]2O[C@H](C)C[C@H](N(C)C)[C@H]2O)[C@](C)(O)C[C@@H](C)CN(C)[C@H](C)[C@@H](OC(=O)NCCc2ccccc2)[C@]1(C)O`, the MIC is 0.06 µg/mL (≈ 0.0573 µM) in the assay on Streptococcus pneumoniae [1], 0.25 µg/mL (≈ 0.239 µM) in the assay with Streptococcus pneumoniae [2], 32 µg/mL (≈ 30.6 µM) against Streptococcus pneumoniae [3] and less than 0.03 µg/mL against Streptococcus pneumoniae [4].

Take `CCCCNC(=O)O[C@@H]1[C@@H](C)N(C)C[C@H](C)C[C@@](C)(O)[C@H](O[C@@H]2O[C@H](C)C[C@H](N(C)C)[C@H]2O)[C@@H](C)[C@H](O[C@H]2C[C@@](C)(OC)[C@@H](OC(=O)NCc3ccc(OC)cc3)[C@H](C)O2)[C@@H](C)C(=O)O[C@H](CC)[C@@]1(C)O`: the MIC against Streptococcus pneumoniae [1] was 1 µg/mL (≈ 0.989 µM); with Streptococcus pneumoniae [2] it was 0.5 µg/mL (≈ 0.494 µM); against Streptococcus pneumoniae [3], 128 µg/mL (≈ 127 µM); against Streptococcus pneumoniae [4], 0.06 µg/mL (≈ 0.0593 µM).

Turning to `CC[C@H]1OC(=O)[C@H](C)[C@@H](O[C@H]2C[C@@](C)(OC)[C@@H](OC(=O)NCc3ccc(F)cc3)[C@H](C)O2)[C@H](C)[C@@H](O[C@@H]2O[C@H](C)C[C@H](N(C)C)[C@H]2O)[C@](C)(O)C[C@@H](C)CN(C)[C@H](C)[C@@H](OC(=O)NCCc2ccccc2Cl)[C@]1(C)O`, the MIC in the assay on Streptococcus pneumoniae [1] was 0.12 µg/mL (≈ 0.111 µM); in the assay on Streptococcus pneumoniae [2], 0.25 µg/mL (≈ 0.231 µM); with Streptococcus pneumoniae [3] it was 2 µg/mL (≈ 1.85 µM); in the assay on Streptococcus pneumoniae [4], less than 0.03 µg/mL.

Take `CC[C@H]1OC(=O)[C@H](C)[C@@H](O[C@H]2C[C@@](C)(OC)[C@@H](OC(=O)NCCc3ccc(O)cc3)[C@H](C)O2)[C@H](C)[C@@H](O[C@@H]2O[C@H](C)C[C@H](N(C)C)[C@H]2O)[C@](C)(O)C[C@@H](C)CN(C)[C@H](C)[C@H]2OC(=O)O[C@@]21C`: the MIC against Streptococcus pneumoniae [1] is 1 µg/mL (≈ 1.07 µM); against Streptococcus pneumoniae [2], 8 µg/mL (≈ 8.53 µM); against Streptococcus pneumoniae [3], 4 µg/mL (≈ 4.26 µM); in the assay with Streptococcus pneumoniae [4] it was less than 0.03 µg/mL.

As for `CCCCNC(=O)O[C@@H]1[C@@H](C)N(C)C[C@H](C)C[C@@](C)(O)[C@H](O[C@@H]2O[C@H](C)C[C@H](N(C)C)[C@H]2O)[C@@H](C)[C@H](O[C@H]2C[C@@](C)(OC)[C@@H](OC(=O)NCCc3ccc(O)cc3)[C@H](C)O2)[C@@H](C)C(=O)O[C@H](CC)[C@@]1(C)O`, the MIC against Streptococcus pneumoniae [1] is 1 µg/mL (≈ 0.989 µM); against Streptococcus pneumoniae [2] it was 0.25 µg/mL (≈ 0.247 µM); against Streptococcus pneumoniae [3], 128 µg/mL (≈ 127 µM); against Streptococcus pneumoniae [4], less than 0.03 µg/mL.

Turning to `CC[C@H]1OC(=O)[C@H](C)[C@@H](O[C@H]2C[C@@](C)(OC)[C@@H](OC(=O)NCCc3ccccc3Cl)[C@H](C)O2)[C@H](C)[C@@H](O[C@@H]2O[C@H](C)C[C@H](N(C)C)[C@H]2O)[C@](C)(O)C[C@@H](C)CN(C)[C@H](C)[C@H]2OC(=O)O[C@@]21C`, the MIC with Streptococcus pneumoniae [1] is 0.25 µg/mL (≈ 0.261 µM); with Streptococcus pneumoniae [2] it was 8 µg/mL (≈ 8.36 µM); in the assay on Streptococcus pneumoniae [3], 2 µg/mL (≈ 2.09 µM); against Streptococcus pneumoniae [4], less than 0.03 µg/mL.

Turning to `CC[C@H]1OC(=O)[C@H](C)[C@@H](O[C@H]2C[C@@](C)(OC)[C@@H](OC(=O)NCCc3ccc(O)cc3)[C@H](C)O2)[C@H](C)[C@@H](O[C@@H]2O[C@H](C)C[C@H](N(C)C)[C@H]2O)[C@](C)(O)C[C@@H](C)CN(C)[C@H](C)[C@@H](OC(=O)NCc2ccccc2)[C@]1(C)O`, the MIC was 0.12 µg/mL (≈ 0.115 µM) in the assay with Streptococcus pneumoniae [1], 0.25 µg/mL (≈ 0.239 µM) with Streptococcus pneumoniae [2], 128 µg/mL (≈ 122 µM) in the assay with Streptococcus pneumoniae [3] and less than 0.03 µg/mL against Streptococcus pneumoniae [4].

Take `CC[C@H]1OC(=O)[C@H](C)[C@@H](O[C@H]2C[C@@](C)(OC)[C@@H](OC(=O)NCc3ccc(OC)cc3)[C@H](C)O2)[C@H](C)[C@@H](O[C@@H]2O[C@H](C)C[C@H](N(C)C)[C@H]2O)[C@](C)(O)C[C@@H](C)CN(C)[C@H](C)[C@H]2OC(=O)O[C@@]21C`: the MIC is 0.25 µg/mL (≈ 0.266 µM) against Streptococcus pneumoniae [1], 8 µg/mL (≈ 8.53 µM) in the assay with Streptococcus pneumoniae [2], 16 µg/mL (≈ 17.1 µM) against Streptococcus pneumoniae [3] and less than 0.03 µg/mL in the assay with Streptococcus pneumoniae [4].

On to `CC[C@H]1OC(=O)[C@H](C)[C@@H](O[C@H]2C[C@@](C)(OC)[C@@H](OC(=O)NCCc3ccccc3Cl)[C@H](C)O2)[C@H](C)[C@@H](O[C@@H]2O[C@H](C)C[C@H](N(C)C)[C@H]2O)[C@](C)(O)C[C@@H](C)CN(C)[C@H](C)[C@@H](OC(=O)NCCc2ccc(O)cc2)[C@]1(C)O`, for which the MIC in the assay with Streptococcus pneumoniae [1] is 0.06 µg/mL (≈ 0.0549 µM); in the assay on Streptococcus pneumoniae [2], 0.25 µg/mL (≈ 0.229 µM); in the assay on Streptococcus pneumoniae [3], 16 µg/mL (≈ 14.6 µM); against Streptococcus pneumoniae [4] it was less than 0.03 µg/mL.

With `CC[C@H]1OC(=O)[C@H](C)[C@@H](O[C@H]2C[C@@](C)(OC)[C@@H](OC(=O)NCCc3ccccc3Cl)[C@H](C)O2)[C@H](C)[C@@H](O[C@@H]2O[C@H](C)C[C@H](N(C)C)[C@H]2O)[C@](C)(O)C[C@@H](C)CN(C)[C@H](C)[C@@H](OC(=O)NCc2ccc(F)cc2)[C@]1(C)O`, the MIC was 0.25 µg/mL (≈ 0.231 µM) in the assay on Streptococcus pneumoniae [1], 0.25 µg/mL (≈ 0.231 µM) with Streptococcus pneumoniae [2], 4 µg/mL (≈ 3.7 µM) in the assay with Streptococcus pneumoniae [3] and 0.06 µg/mL (≈ 0.0555 µM) with Streptococcus pneumoniae [4].

As for `CC[C@H]1OC(=O)[C@H](C)[C@@H](O[C@H]2C[C@@](C)(OC)[C@@H](OC(=O)NCc3ccc(F)cc3)[C@H](C)O2)[C@H](C)[C@@H](O[C@@H]2O[C@H](C)C[C@H](N(C)C)[C@H]2O)[C@](C)(O)C[C@@H](C)CN(C)[C@H](C)[C@H]2OC(=O)O[C@@]21C`, the MIC is 0.06 µg/mL (≈ 0.0648 µM) in the assay on Streptococcus pneumoniae [1], 8 µg/mL (≈ 8.64 µM) in the assay with Streptococcus pneumoniae [2], 4 µg/mL (≈ 4.32 µM) against Streptococcus pneumoniae [3] and less than 0.03 µg/mL against Streptococcus pneumoniae [4].

On to `CC[C@H]1OC(=O)[C@H](C)[C@@H](O[C@H]2C[C@@](C)(OC)[C@@H](OC(=O)NCCc3ccc(O)cc3)[C@H](C)O2)[C@H](C)[C@@H](O[C@@H]2O[C@H](C)C[C@H](N(C)C)[C@H]2O)[C@](C)(O)C[C@@H](C)CN(C)[C@H](C)[C@@H](OC(=O)NCCc2ccccc2Cl)[C@]1(C)O`, for which the MIC against Streptococcus pneumoniae [1] is 0.25 µg/mL (≈ 0.229 µM); against Streptococcus pneumoniae [2], 0.25 µg/mL (≈ 0.229 µM); in the assay with Streptococcus pneumoniae [3], 16 µg/mL (≈ 14.6 µM); against Streptococcus pneumoniae [4], less than 0.03 µg/mL.

Consider `CC[C@H]1OC(=O)[C@H](C)[C@@H](O[C@H]2C[C@@](C)(OC)[C@@H](OC(=O)NCCc3ccccc3Cl)[C@H](C)O2)[C@H](C)[C@@H](O[C@@H]2O[C@H](C)C[C@H](N(C)C)[C@H]2O)[C@](C)(O)C[C@@H](C)CN(C)[C@H](C)[C@@H](OC(=O)NCc2ccccc2)[C@]1(C)O`, for which the MIC against Streptococcus pneumoniae [1] was 0.25 µg/mL (≈ 0.235 µM); in the assay with Streptococcus pneumoniae [2], 0.25 µg/mL (≈ 0.235 µM); with Streptococcus pneumoniae [3] it was 4 µg/mL (≈ 3.76 µM); in the assay on Streptococcus pneumoniae [4], less than 0.03 µg/mL.

`CC[C@H]1OC(=O)[C@H](C)[C@@H](O[C@H]2C[C@@](C)(OC)[C@@H](O)[C@H](C)O2)[C@H](C)[C@@H](O[C@@H]2O[C@H](C)C[C@H](N(C)C)[C@H]2O)[C@](C)(O)C[C@@H](C)CN(C)[C@H](C)[C@@H](O)[C@]1(C)O` [AZITHROMYCIN]: the MIC with Streptococcus pneumoniae [1] is 4 µg/mL (≈ 5.34 µM); against Streptococcus pneumoniae [2] it was 128 µg/mL (≈ 171 µM); against Streptococcus pneumoniae [3], 256 µg/mL (≈ 342 µM); in the assay with Streptococcus pneumoniae [4], less than 0.03 µg/mL.

Turning to `CC[C@H]1OC(=O)[C@H](C)[C@@H](O[C@H]2C[C@@](C)(OC)[C@@H](O)[C@H](C)O2)[C@H](C)[C@@H](O[C@@H]2O[C@H](C)C[C@H](N(C)C)[C@H]2O)[C@](C)(OC)C[C@@H](C)C(=O)[C@H](C)[C@@H](O)[C@]1(C)O` [CLARITHROMYCIN], the MIC against Streptococcus pneumoniae [1] was 4 µg/mL (≈ 5.35 µM); against Streptococcus pneumoniae [2] it was 64 µg/mL (≈ 85.6 µM); with Streptococcus pneumoniae [3] it was 128 µg/mL (≈ 171 µM); against Streptococcus pneumoniae [4], less than 0.03 µg/mL.
